The record followed here is patent publication US20210145000A1, “WEED CONTROL FROM APPLICATIONS OF PYRIDINE CARBOXYLIC ACID HERBICIDES AND ACETYL CoA CARBOXYLASE (ACCase) INHIBITORS” (Dow AgroSciences LLC, priority 2018, published 2021).

Molecules are shown by their SMILES. Values joined by “and” are separate entries in the source; they are usually repeats but may differ in a detail not shown here. Identical values can stand only once.

Assay in all cases: Postemergence herbicidal activity, greenhouse, visual injury
Holding throughout (assay type): in vivo

One assay deals with maize (Zea mays, ZEAMX). To be noted: post-emergence, read-out: Effect (% visual injury) Obs. As to the method: (§1) The plants were grown for 7-36 days (d) in a greenhouse with an approximate 14-hour (h) photoperiod which was maintained at about 23° C. during the day and 22° C. during the night. Nutrients and water were added on a regular basis and supplemental lighting was provided with overhead metal halide 1000-Watt lamps as necessary. The plants were employed for testing when they reached the second or third true leaf stage.
(§2) Spray solutions of the experimental compound mixtures were prepared by adding the stock solutions to the appropriate amount of dilution solution to form a 12 mL spray solution in two-way combinations. […] Control plants were sprayed in the same manner with the solvent blank. Application rates for component (a) are in g ae/ha, and application rates for component (b) are in g ai/ha.
(§3) The treated plants and control plants were placed in a greenhouse as described above and watered by sub-irrigation to prevent wash-off of the test compounds. After 20-22 d, the condition of the test plants as compared with that of the control plants was determined visually and scored on a scale of 0 to 100 percent where 0 corresponds to no injury and 100 corresponds to complete kill. […] The Colby method was used to determine the herbicidal effects expected from the mixtures.

Assay [1] deals with large crabgrass (Digitaria sanguinalis, DIGSA). To be noted: post-emergence, read-out: Effect (% visual injury) Obs. On the procedure: as §1, §2, §3
Assay [2] has as its system blackgrass (Alopecurus myosuroides, ALOMY). To be noted: post-emergence, read-out: Effect (% visual injury) Obs. On the procedure:
as §1, §2, §3

For assay [3], the system named is velvetleaf (Abutilon theophrasti, ABUTH). To be noted: post-emergence, read-out: Effect (% visual injury) Obs. On the procedure: as §1, §2, §3
Assay [4] deals with wild buckwheat (Polygonum convolvulus, POLCO). As to the method: as §1, §2, §3
Assay [5] concerns wild oat (Avena fatua, AVEFA). To be noted: post-emergence, read-out: Effect (% visual injury) Obs. On the procedure: as §1, §2, §3
Assay [6] deals with winter wheat (Triticum aestivum, TRZAW). As to conditions: post-emergence, read-out: Effect (% visual injury) Obs. As to the method:
as §1, §2, §3

Assay [7] has as its system sunflower (Helianthus annuus, HELAN). As to conditions: post-emergence, read-out: Effect (% visual injury) Obs. As to the method:
as §1, §2, §3

The test system of assay [8] is giant foxtail (Setaria faberi, SETFA). As to conditions: post-emergence, read-out: Effect (% visual injury) Obs. On the procedure:
as §1, §2, §3

Assay [9] has as its system wild pansy (Viola tricolor, VIOTR). As to conditions: post-emergence, read-out: Effect (% visual injury) Obs. As to the method:
as §1, §2, §3

Assay [10] deals with barnyardgrass (Echinochloa crus-galli, ECHCG). To be noted: post-emergence, read-out: Effect (% visual injury) Obs. As to the method: as §1, §2, §3
Assay [11] deals with soybean (Glycine max, GLXMA). As to conditions: post-emergence, read-out: Effect (% visual injury) Obs. As to the method:
as §1, §2, §3

In assay [12] the test system is rice (Oryza sativa, ORYSA). As to conditions: post-emergence, read-out: Effect (% visual injury) Obs. As to the method:
as §1, §2, §3

Assay [13] deals with common lambsquarters (Chenopodium album L., CHEAL). To be noted: post-emergence, read-out: Effect (% visual injury) Obs. On the procedure:
as §1, §2, §3

In assay [14] the test system is pigweed (Amaranthus retroflexus, AMARE). To be noted: post-emergence, read-out: Effect (% visual injury) Obs. On the procedure: as §1, §2, §3
Assay [15] relates to chickweed (Stellaria media, STEME). As to conditions: post-emergence, read-out: Effect (% visual injury) Obs. On the procedure:
(§4) Seeds of the desired test plant species were planted in Sun Gro MetroMix® 306 planting mixture, which typically has a pH of 6.0 to 6.8 and an organic matter content of about 30 percent, in plastic pots with a surface area of 103.2 square centimeters (cm^2). When required to ensure good germination and healthy plants, a fungicide treatment and/or other chemical or physical treatment was applied. The plants were grown for 7-36 days (d) in a greenhouse with an approximate 14-hour (h) photoperiod which was maintained at about 23° C. during the day and 22° C. during the night. Nutrients and water were added on a regular basis and supplemental lighting was provided with overhead metal halide 1000-Watt lamps as necessary. The plants were employed for testing when they reached the second or third true leaf stage.
(§5) An emulsifiable concentrate (EC) formulation containing Compound 1 at 100 gai/L was prepared by combining Compound 1 with 1-butyl-2-pyrrolidinone (Tamisolve NxG; 360.5 g/L), benzyl acetate (544.6 g/L) and Agnique MBL 520L surfactant (52.9 g/L). […] The concentrated stock solution was diluted with an aqueous mixture of 1.5% v/v of Agri-dex crop oil concentrate to provide the appropriate application rates. Compound requirements are based upon a 12 milliliter (mL) application volume at a rate of 187 liters per hectare (L/ha). Spray solutions of the experimental compound mixtures were prepared by adding the stock solutions to the appropriate amount of dilution solution to form a 12 mL spray solution in two-way combinations. Formulated compounds were applied to the plant material with an overhead Mandel track sprayer equipped with 8002E nozzles calibrated to deliver 187 L/ha over an application area of 0.503 square meters (m^2) at a spray height of 18 inches (43 centimeters (cm)) above average plant canopy. Control plants were sprayed in the same manner with the solvent blank. Application rates for component (a) are in g ae/ha, and application rates for component (b) are in g ai/ha.
as §3

For assay [16], the system named is winter rape (Brassica napus, BRSNW). To be noted: post-emergence, read-out: Effect (% visual injury) Obs. As to the method: as §4, §5, §3
Assay [17] relates to poinsettia (Euphorbia heterophylla, EPHHL). As to the method: as §4, §5, §3
Assay [18] relates to kochia (Kochia scoparia, KCHSC). As to the method: as §4, §5, §3
For assay [19], the system named is grain sorghum (Sorghum vulgare, SORVU). As to conditions: post-emergence, read-out: Effect (% visual injury) Obs. On the procedure: as §1, §2, §3
Assay [20] relates to ivyleaf morningglory (Ipomoea hederacea, IPOHE). On the procedure: as §4, §5, §3
[21] abbreviates: Fallopia convolvulus, post-emergence, read-out: Effect (% visual injury) Obs.
The mark [22] stands for this setting: Clodinafop-propargyl 30 g ai/ha.

Turning to `CCSC(C)CC1CC(=O)C(C(CC)=NOC/C=C/Cl)=C(O)C1` (stereo not drawn) [Clethodim], the plant injury at 70 g/ha amounted to 100% in the assay on maize (Zea mays, ZEAMX); 70% in assay [6]; 0% in assay [7]; 10% in assay [11]; 90% in assay [12]; 5% in assay [16]. Moreover, the pest or weed control at 70 g/ha in assay [1] is 70%; in assay [2], 93%; in assay [3], 0%; in assay [4] (setting [21]) it was 10%; in [5] it was 97%; in assay [8], 85%. For the same compound, the pest or weed control at 70 g/ha in assay [9] amounted to 5%; in assay [10], 100%; in assay [13], 5%; in assay [14], 5%; in assay [15], 10%. In addition, the “Effect (% visual injury) Obs” value is listed as 30% in assay [17] (Clethodim 70 g ai/ha) and 0% in assay [18] (Clethodim 70 g ai/ha).

Take `CCON=C(CC)C1=C(O)CC(c2c(C)cc(C)cc2C)CC1=O` (stereo not drawn) [Tralkoxydim, 2-[1-(ethoxyimino)propyl]-3-hydroxy-5-mesitylcyclohex-2-enone]: the plant injury at 200 g/ha in the assay on maize (Zea mays, ZEAMX) stood at 100%; in [19] it was 60%; in assay [11] it was 0%; in assay [12], 75%; in assay [16], 0%. Moreover, the pest or weed control at 200 g/ha in assay [1] turned out to be 50%; in [3] it was 0%; in [4] (setting [21]) it was 0%; in assay [5], 100%; in assay [8] it was 0%; in assay [9] it was 5%. The pest or weed control at 200 g/ha in assay [10] is 30%; in assay [13], 5%; in assay [14], 0%; in assay [15] it was 10%. For the same compound, the “Effect (% visual injury) Obs” value in assay [17] (Tralkoxydim 200 g ai/ha) and in assay [18] (Tralkoxydim 200 g ai/ha) was 0% throughout.

Turning to `C#CCOC(=O)[C@@H](C)Oc1ccc(Oc2ncc(Cl)cc2F)cc1` [Clodinafop-propargyl, prop-2-ynyl (R)-2-[4-(5-chloro-3-fluoro-2-pyridyloxy)phenoxy]propionate], the plant injury is 100% in the assay with maize (Zea mays, ZEAMX) (setting [22]); 0% in [6] (setting [22]); 0% in assay [7] (setting [22]); 100% in [19] (setting [22]); 0% in [11] (setting [22]); 90% in assay [12] (setting [22]). In addition, the pest or weed control in assay [1] (setting [22]) was 95%; in assay [2] (setting [22]), 10%; in [3] (setting [22]) it was 0%; in assay [4] (Fallopia convolvulus, post-emergence, Clodinafop-propargyl 30 g ai/ha, read-out: Effect (% visual injury) Obs) it was 0%; in [5] (setting [22]), 90%; in assay [8] (setting [22]), 98%. Besides, the pest or weed control in assay [10] (setting [22]) came to 100%; in assay [14] (setting [22]) it was 0%. For the same compound, the “Effect (% visual injury) Obs” value in [20] (setting [22]) was 0%. Moreover, the pest or weed control at 30 g/ha in assay [15] (setting [22]) came to 0%. In addition, in assay [16] (setting [22]), the plant injury at 30 g/ha was found to be 0%.

`CCCC(=NOCC)C1=C(O)CC(CC(C)SCC)CC1=O` (racemic) [Sethoxydim, (±)-(EZ)-2-(1-ethoxyiminobutyl)-5-[2-(ethylthio)propyl]-3-hydroxycyclohex-2-enone]: the plant injury at 140 g/ha with maize (Zea mays, ZEAMX) amounted to 75%; in assay [6], 60%; in assay [7], 0%; in assay [19], 100%; in assay [11], 0%; in assay [12], 75%. The plant injury at 140 g/ha in assay [16] was determined as 0%. The pest or weed control at 140 g/ha in assay [1] was 60%; in [2] it was 95%; in [3], 0%; in assay [4] (setting [21]) it was 0%; in assay [5], 85%; in assay [8], 85%. For the same compound, the pest or weed control at 140 g/ha is 5% in assay [9]; 50% in [10]; 5% in assay [13]; 0% in assay [14]; 10% in assay [15]. The “Effect (% visual injury) Obs” value is 10% in assay [17] (Sethoxydim 140 g ai/ha) and 0% in assay [18] (Sethoxydim 140 g ai/ha).

For `Nc1c(F)c(-c2ccc3cc[nH]c3c2F)nc(C(=O)O)c1Cl` [Compound 1], the plant injury at 5 g/ha stood at 0% in the assay on maize (Zea mays, ZEAMX) (Compound 1 5 g ai/ha); 0% in assay [6] (Compound 1 5 g ai/ha); 95% in [7] (Compound 1 5 g ai/ha); 100% in assay [11] (Compound 1 5 g ai/ha); 0% in assay [12] (Compound 1 5 g ai/ha); 60% in assay [16] (Compound 1 5 g ai/ha). In addition, the plant injury at 10 g/ha in the assay on maize (Zea mays, ZEAMX) (Compound 1 10 g ai/ha) is 0%; in [6] (Compound 1 10 g ai/ha), 0%; in assay [7] (Compound 1 10 g ai/ha), 90%; in assay [19] (Compound 1 10 g ai/ha), 50%; in [11] (Compound 1 10 g ai/ha) it was 100%; in [12] (Compound 1 10 g ai/ha), 10%. Besides, the plant injury at 10 g/ha in assay [16] (Compound 1 10 g ai/ha) was determined as 45%. The pest or weed control at 5 g/ha worked out at 0% in assay [1] (Compound 1 5 g ai/ha); 0% in [2] (Compound 1 5 g ai/ha); 50% in assay [3] (Compound 1 5 g ai/ha); 0% in assay [5] (Compound 1 5 g ai/ha); 100% in assay [13] (Compound 1 5 g ai/ha). Also, the pest or weed control at 10 g/ha came to 10% in assay [1] (Compound 1 10 g ai/ha); 0% in assay [2] (Compound 1 10 g ai/ha); 60% in assay [3] (Compound 1 10 g ai/ha); 75% in assay [4] (Fallopia convolvulus, post-emergence, Compound 1 10 g ai/ha, read-out: Effect (% visual injury) Obs); 0% in assay [5] (Compound 1 10 g ai/ha); 50% in assay [8] (Compound 1 10 g ai/ha). Moreover, the pest or weed control at 10 g/ha in assay [9] (Compound 1 10 g ai/ha) was 10%; in assay [10] (Compound 1 10 g ai/ha) it was 60%; in assay [13] (Compound 1 10 g ai/ha) it was 100%; in assay [14] (Compound 1 10 g ai/ha), 97%; in [15] (Compound 1 10 g ai/ha) it was 70%. Further, the “Effect (% visual injury) Obs” value in [4] (Compound 1 10 g ai/ha) is 75%; in [20] (Compound 1 5 g ai/ha) it was 10%; in assay [17] (Compound 1 5 g ai/ha), 100% and 97%; in [17] (Compound 1 10 g ai/ha) it was 97%; in assay [18] (Compound 1 5 g ai/ha), 60%; in assay [18] (Compound 1 10 g ai/ha), 60%.
